Source: patent publication US8088602B1, “Manipulation of RNA stability and protein synthesis using thio-phosphate” (priority 2001, dated 2012)

Tests used:
[1] = system: YEpFLAG-1-BAP (bacterial alkaline phosphatase) expression in yeast cells (BJ3505 strain); test: Recombinant FLAG-tagged secreted bacterial alkaline phosphatase synthesis in yeast (immuno test strips, dilution assays); type: cell-based, S. cerevisiae
Method: (§1) The stabilization of RNA by growth in thio-phosphate media can be used to enhance the protein synthesis of many proteins. The optimal level of thio-phosphate to phosphate must be determined as well absolute levels of total phosphate that are tolerable. Growth in all cases is enhanced by using enriched media prepared by depleting inherent phosphate. To deplete phosphate by precipitation, MgSO4 and ammonium hydroxide are added to the media of choice. YPD (1% Bacto-yeast extract, 2% Bacto-peptone, 2% Dextrose) phosphate depleted media is prepared by adding 10 ml of 1 M MgSO4 and 10 ml of concentrated NH4OH per liter and allowing the ppt. to form by leaving the solution at room temp. for 30 min. The media is then filtered and the pH readjusted to pH 6.5. Using this procedure, the detectable amount of ortho-phosphate remaining is less than ˜200 mg/liter. […] It is best to innoculate at high densities using, for example a 1:20 dilution. Insufficient innoculum (low density) will result in poor growth.
To test for optimal protein synthesis conditions the following system can be used: a recombinant YEp plasmid containing a secreted bacterial alkaline phosphatase gene (YEpFLAG-1-BAP, Sigma; U.S. Pat. Nos. 4,703,004, 4,782,137 EP Patent 150126, and JP Patent 1983150) marked with the FLAG™ peptide DYKDDDDK. […]

yeast actin mRNA = test: Northern analysis of actin mRNA in yeast grown in thio-phosphate media; type: cell-based, S. cerevisiae; conditions: 100% thio-phosphate substituted media; ~0.5 ug total RNA
Method: To maximize mRNA levels cells are grown in minimal media substituted with 100% thio-phosphate. Bacteria and yeast grow quite well in such media. For E. coli minimal media is prepared as follows: (Na3SPO3.XH2O) 10-15 g/L and KCL (1.5 g/L) (NH4)2SO4, 1 g/L; sodium citrate 2H2O, 0.5 g/L; Adjust pH to 7.4 and sterile filter. Then add the following: MgSO4.7H2O, 0.2 g/L (sterilized separately as a conc. solution); (thiamine HCL, 5 ug/L; glucose, 4 g/L sterilized separately by filtration). Glucose can also be sterilized by autoclaving separately. FeCl2 (500 ug/L) can also be added as needed. Thio-phosphate contains variable amounts of water (10-15 per molecule) not included in molecular weight calculations. It is almost 50% water by weight. Note pH control is important in maximizing thio-phosphate stability. […] When adapting to other bacteria determine the sensitivity of the organism to thio-phosphate levels. Optimize for KCL as this often is provided as a salt of normal phosphate. […]
(§2) The mRNA is in the size range expected for a mature mRNA in which the intron sequences have been removed (FIG. 1). […] The probe is hybridized according to S&S protocols and detected by chemilumescence using polaroid film. […] Extracellular nucleases are detected by monitoring the degradation of genomic DNA by gel electrophoresis.

Extracellular nucleases = test: Extracellular nuclease activity of yeast (degradation of genomic DNA by gel electrophoresis); type: cell-based
Method: (§3) An additional assay was developed to examine the effects of thio-phosphate media on the synthesis of secreted proteins. Yeast excrete many extracellular hydrolases and the mRNAs for […] adenine, histidine, leucine, lysine, and uracil (Sp, BIO101). Various S. cerevisiase strains are able to grow in minimal media containing thio-phosphate: multiploid fleischmann's yeast strain, haploid strain ATTC# 32119, and diploid strain BJ3505 (Sigma). The haploid strain Pichia canadensis ATTC# 14355 grew better with a yeast nitrogen based media (YNB, BIO 101) as opposed to EMM. Note that the optimal level of total phosphate for yeast is ˜1 g/L which is much less than that for bacteria. Again if necessary to improve growth use nutrient broths depleted of phosphate (see below).
The mRNA is in the size range expected for a mature mRNA in which the intron sequences have been removed (FIG. 1). […] The actin probe is prepared by amplification of yeast genomic DNA (act), YFL039C, Saccharomyces Genome Database http://genome-www2.standford.edu) with the following PCR primers: • SEQ ID NO. 1: 5′ GAGGTTGCTGCTTTGGTTATTG 3′ 22 bp • SEQ ID NO. 2: 5′ TTGTGGTGAACGATAGATGGAC 3′ 22 bp PCR cycling parameters using a BIO-RAD thermal cycler and Taq polymerase are as follows: initial denaturation at 94° C. for 4 min. followed by 33 cycles of denaturation at 94° C. for 30 sec, annealing at 45° C. for 30 sec, elongation at 72° C. for 3 min. followed by a final elongation at 72° C. for 7 min. […] Total RNA (˜0.5 ug) is separated on a 2% high resolving agarose gel and transferred to a neutral nylon membrane. The probe is hybridized according to S&S protocols and detected by chemilumescence using polaroid film. […] Extracellular nucleases are detected by monitoring the degradation of genomic DNA by gel electrophoresis.

lipase = test: Secreted lipase of yeast, qualitative assays; type: cell-based
Method: as §3
as §2, with “1). […] The actin probe is prepared by amplification of yeast genomic DNA (act), YFL039C, Saccharomyces Genome Database http://genome-www2.standford.edu) with the following PCR primers: • SEQ ID NO. 1: 5′ GAGGTTGCTGCTTTGGTTATTG 3′ 22 bp • SEQ ID NO.” for “1).”

[2] = system: pFLAG-ATS-BAP (bacterial alkaline phosphatase) expression in JM109; test: Bacterial expression of pFLAG-ATS-BAP, colormetric staining of whole cells (NBT/BCIP); type: cell-based, bacterial cells (JM109)
Method: Bacterial expression can be examined using the recombinant vector pFLAG-ATS-BAP (Sigma Chemical; U.S. Pat. Nos. 4,703,004, 4,782,137 EP Patent 150126, and JP Patent 1983150) marked with bacterial alkaline phosphatase and under the control of a tac/lac hybrid promoter induced by IPTG. This control plasmid is expressed in the periplasmic fraction by virtue of the N-terminal OmpA signal at high levels. Enzyme activity is easily visualized using colormetric staining of whole cells. 0.5 ml of cells are pelleted and resuspended in pH 9.5 buffer (0.1 M Tris-HCL, 0.1 M NaCL, 50 mM MgCl2) along with 10 ul of NBT (nitroblue tetrazolium, 50 mg/ml) and 5 ul of BCIP (5-bromo-4-chloro-3-indolylphosphate, 50 mg/ml). After sufficient time (there may be a slight delay in the activity of induced cells) the samples are compared and then centrifuged to compare pellets. Various ratios of modified phosphate to phosphate are examined: 0%, 10%, 15%, 20%, 25%, 30%, 40%, 50%, 60, 70%, 80%, 90% and 100%. […] To determine the optimal ratio a lower level of lactose is used in the media to prevent the formation of inclusion bodies during the analysis (M9 minimal media made with 0.1% rather than 0.5% lactose, total phosphate levels of 10 g/L). […]

beta-galactosidase = test: Recombinant beta-galactosidase colormetric assay (X-gal) in bacterial cells; type: cell-based; conditions: for effect on beta-galactosidase enzyme activity: 2% lactose minimal media
Method: A recombinant vector containing the beta-galactosidase gene (Promega's TA vector expressed from an SP6 promoter) can also be examined. Enzyme activity is detected via a colormetric assay. Cells are grown in minimal media made with 2% lactose rather than glucose for optimal induction of beta-galactosidase. After several (˜4-5) hrs bacterial cells are removed to assay for enzyme activity. To 0.5 ml of cells add 0.5 ml of 200 mM Tris-HCL, pH 7.5 and 5 ul of 1% SDS (sodium dodecyl sulfate). Then add 10 ul of IPTG (100 mM) and 20 ul of X-gal (50 mg/ml), mix and incubate at 37° C. […] In the presence of glucose which represses the enzyme, the activity is much lower but can be enhanced 10 fold by using a 50% ratio of thio-phosphate to phosphate.

bacteria = test: Soluble protein levels, biuret reagent, bacteria; type: cell-based; conditions: low ratios of thio-phosphate to phosphate (10-30%)
Method: (§4) At higher ratios a slight decline in growth appears to account for a reduction in total protein synthesis detected. To measure protein synthesis 4 ml of cells are pelleted washed in PBS and resuspended in lysozyme solution for bacteria. Cells are then pelleted again and washed in PBS to remove lysozyme. Cells are then lysed in 400 ul of 1% SDS and 0.2 N NaOH. The extract is then diluted in water to 2 ml and assayed using the biuret reagent (Gornall et al (1949) J. Biol. Chem. 177:751). Yeast are assayed without lysozyme.

yeast = test: Soluble protein levels, biuret reagent, yeast; type: cell-based; conditions: low ratios of thio-phosphate to phosphate (10-30%)
Method: as §4

Carassius auratus = test: Tolerance of fish kept in conditioned media with thio-phosphate; type: in vivo; conditions: up to 250 mg/L of thio-phosphate in conditioned media, two days
Method: (§5) Thio-phosphate can also be utilized by whole animals and/or complex tissues. Carassius auratus incorporates thio-phosphate into the DNA of intestinal cells; these cells are known to turnover in adults. Fish can be maintained in distilled water with NovAqua and AmQuel conditioners (U.S. Pat. No. 4,666,610). Goldfish flakes are also added for food. Normal phosphate levels in the aquarium are less than 1 mg/L (Hanna Phosphate Test Kit; Hanna Instruments). Fish are transferred to 100 ml of conditioned media with up to 250 mg/L of thio-phosphate added. […] Fresh media is prepared daily. Fish are sacrificed and DNA prepared from intestinal cells using DNAzol™ (Molecular Research Center Ohio). The DNA samples are then tested for resistance to DNase digestion. Samples are incubated in a 50 ul rxn with ˜lug of DNA and 0.5 units of DNase for 0, 5, 10, 15 min. at room temp. DNA from 250 mg/L thio-phosphate media is much more resistant than wildtype DNA or DNA from 25 mg/L thio-phosphate media. Normal DNA and 25 mg/L thio-phosphate treated DNA is digested after 5 min. while 250 mg/L thio-phosphate treated DNA persists beyond 15 min. of digestion (FIG. 3).

DNA of intestinal cells = test: DNase resistance of intestinal DNA from fish kept in thio-phosphate media; type: in vivo, Carassius auratus; conditions: 0.5 units DNase, room temp.
Method: as §5

Pichia canadensis = test: Growth in phosphate depleted YPD media with thio-phosphate/phosphate ratios; type: cell-based; conditions: phosphate levels ~1 g/L, full range of ratios (100% to 0%)
Method: as §1

S. cerevisiae = test: as above; type: cell-based; conditions: phosphate levels ~1 g/L, full range of ratios (100% to 0%)
Method: as §1

[Na+].[Na+].[Na+].[O-]P([O-])([O-])=S [thio-phosphate, Na3SPO3.XH2O]
ratio of thio-phosphate to normal phosphate at which maximal synthesis occurs ([1]; weight equivalent ratio, grown overnight, following cessation of growth, ratios 100-0 tested): ~10%
increase of FLAG-BAP protein compared to normal media with an equivalent amount of phosphate ([1]; ~10% ratio, dilution assays): about ten fold
stabilization of actin mRNA (yeast actin mRNA): significant stabilization
increase of extracellular nuclease activity (Extracellular nucleases; 10% ratio of thio-phosphate to phosphate): two to three fold increase
effect on extracellular nuclease activity (Extracellular nucleases; ratios above 70%): slightly inhibitory
effect on extracellular nuclease activity (Extracellular nucleases; ratios beyond 30%): not stimulatory
increase of lipase (lipase): less than two fold
BAP activity elevated over controls ([2]; 50% ratio, low lactose levels): several fold
optimal ratio of modified phosphate to phosphate for BAP enzyme activity ([2]; low lactose (0.1%) M9 minimal media, total phosphate 10 g/L): 50%
effect on beta-galactosidase enzyme activity (beta-galactosidase; higher ratios (50-70%)): recovers from inhibition
enhancement of beta-galactosidase activity (beta-galactosidase; in the presence of glucose, 50% ratio of thio-phosphate to phosphate): 10 fold
effect on beta-galactosidase enzyme activity (beta-galactosidase; low ratios of thio-phosphate to phosphate (5-30%)): inhibited
soluble protein levels (bacteria): not enhanced
soluble protein levels (yeast): not enhanced
adverse reactions in fish (Carassius auratus): No adverse reactions
time after which DNA is digested by DNase (DNA of intestinal cells; 25 mg/L thio-phosphate media): ≤ 5 min
time DNA persists under DNase digestion (DNA of intestinal cells; 250 mg/L thio-phosphate media): > 15 min
growth (Pichia canadensis): adequate growth
growth (S. cerevisiae): adequate growth
